Measurements published in patent publication US20240261443A1, “COMPOUNDS AND COMPOSITIONS USEFUL AS RADIOTRACERS FOR IMAGING OF REACTIVE OXIDATIVE SPECIES” (Wake Forest University Health Sciences, priority 2019, published 2024).

Columns and labels:
[1] = test system: PC3 cells; assay: [18F]KS1 in vitro cell uptake in PC3 cells, normoxic and hypoxic; assay type: cell-based, human
Description: ROS efficacy was evaluated in two tumor cell lines: (1)SCC-61 and rSCC-61 cells (HNSCC) (FIG. 5), and (2) PC3 (PCa) cell lines under normoxic and hypoxic conditions (FIG. 6) following previously published protocols by our group (Sai et al., Peptide-based PET imaging of the tumor restricted IL13RA2 biomarker. Oncotarget 2017, 5; Yamamoto et al., Correlation of 18F-FLT and 18F-FDG uptake on PET with Ki-67 immunohistochemistry in non-small cell lung cancer. European Journal of Nuclear Medicine and Molecular Imaging 2007, 34 (10), 1610-1616; Solingapuram Sai et al., Radiolabeling and initial biological evaluation of [18F]KBM-1 for imaging RAR-α receptors in neuroblastoma. Bioorganic & Medicinal Chemistry Letters 2017, 27 (6), 1425-1427). Several ROS blockers including fresh solution of non-radioactive compounds KS1, KS2, SOD (10 μM) in the cell media were added to the seeded tumor cells 1.0 h prior to radiotracer addition (n=6 per blocker). All the cells were then treated with [^18F]KS1 (2.0 μCi/well, UV mass=0.4 μg/mL and S.A=3100 mCi/μmol) and incubated for 60 min (n=6) at 37° C. All the cells (both with and without blockers) were washed and lysed with lysate buffer solution. Lysate samples from each well were collected for gamma counting.
Similarly, in another experiment, human PCa-PC3 cells were cultured under normoxic (˜21% O2) or hypoxic (1% O2) conditions for 48 h. Thereafter, similar to HNSCC cells (detailed above) all assay steps including blocker treatment, radiotracer addition, incubations, washings and lysis were carried out under normoxic or hypoxic conditions. All hypoxia experiments were performed in a hypoxia chamber (Biospherix X3 Xvivo system). Plates without radioactivity were used as controls. […] The counts per minute values of each well were normalized to the amount of radioactivity added to each well and was expressed as percent uptake relative to the control condition. The data were expressed as % ID/mg of protein present in each well.
To further test the specificity of [^18F]KS1 for ROS, radioactive uptake in PCa cells was tested under hypoxic conditions, as several studies have shown that hypoxic conditions promote ROS generation and oxidative stress (Kumar et al., Oxidative Stress Is Inherent in Prostate Cancer Cells and Is Required for Aggressive Phenotype. Cancer Research. 2008; 68:1777-85; Pinthus et al., Androgen Induces Adaptation to Oxidative Stress in Prostate Cancer: Implications for Treatment with Radiation Therapy. Neoplasia (New York, NY). 2007; 9:68-80; Cervellati et al., Hypoxia induces cell damage via oxidative stress in retinal epithelial cells. […] A reported hypoxia model of PCa cells was tested in which the uptake of [^18F]KS1 was evaluated in PC3 cells cultured under hypoxic conditions versus normoxic conditions.

[2] = test system: SCC-61 and PC3 cell lines; assay: DCFDA intracellular ROS detection assay; assay type: cell-based, human
Source text: For this, we used dichlorofluorescin diacetate (DCFDA) intracellular ROS detection assay kit and followed manufacture recommended protocol (ZHELEV et al., Docosahexaenoic Acid Sensitizes Leukemia Lymphocytes to Barasertib and Everolimus by ROS-dependent Mechanism Without Affecting the Level of ROS and Viability of Normal Lymphocytes. Anticancer Research 2016, 36 (4), 1673-1682). We studied two patient-derived tumor cell lines: SCC-61, […], and PC3, prostate cancer cell line. The maximum allowed mass for a typical clinical PET radiotracer is <100 μM (Schwarz et al., Radiochemistry and radiopharmacology. LIC-Nuclear Medicine and PET/CT: Technology and Techniques 2016, 11, 77), so we chose 10-100 μM as our concentration range for tracer-level assays. The lowest reported pharmacologic dose for ascorbate is 2.0 mM (Levine et al., Vitamin C: a concentration-function approach yields pharmacology and therapeutic discoveries. Adv Nutr 2011, 2 (2), 78-88), so we chose this dose for our pharmacological assays. We chose the ligand incubation times based on the maximum tracer uptake time (˜2 h) for a typical [^18F]-based PET radiotracer injection (Schlyer, PET tracers and radiochemistry. ANNALS-ACADEMY OF MEDICINE SINGAPORE 2004, 33 (2), 146-154).
Pharmacologic doses of ascorbate generates ROS, including H2O2 and trace amounts of labile iron extracellularly and/or intracellularly (Nauman et al., Systematic Review of Intravenous Ascorbate in Cancer Clinical Trials. Antioxidants (Basel) 2018, 7 (7), 89). We performed the same DCFDA assay with KS1 and ascorbate at pharmacological doses of 2 mM for 7 h in both SCC-61 and PC3 cell lines. ROS production was analyzed and reported (FIG. 11) using the similar measurements as above. Ligand specificity is commonly determined by pretreating the cells with high concentrations of blockers. We used superoxide dismutase (SOD), an enzyme that selectively suppresses accumulation of superoxide peroxide anions (Bielski et al., Chemistry of ascorbic acid radicals. in Ascorbic Acid: Chemistry, Metabolism, and Uses. Chapter 1982, 4, 81-100).

## O=C1O/C(=C/CCl)C(O)=C1OCc1ccc(OCC[18F])cc1 [[^18F]KS1]
[1]; PC3 cells
  uptake blocked by SOD: ~48%
  uptake blocked by nonradioactive KS1: ~61%
  uptake increase with doxorubicin: ~15%
[1]; hypoxic 1% O2 vs normoxic ~21% O2, 60 min
  radioactive uptake in PC3 under hypoxic conditions versus normoxic conditions: ~2 fold

## O=C1O/C(=C/CCl)C(O)=C1OCc1ccc(OCCF)cc1 [KS1, (E)-5-(2-chloroethylidene)-3-(4-(2-fluoroethoxy)benzyloxy)-4-hydroxyfuran-2(5H)-one]
[2]; 10 μM and 100 μM, SCC-61 and PC3
  ROS generation (DCFDA fluorescence): did not generate ROS
[2]; 2 mM, 7 h, compared to 100 μM
  fluorescence intensity (ROS generation) at pharmacological dose: increased significantly
[2]; 2 mM, SOD blocker
  increased intensity subdued with SOD addition: ~3 fold
